Measurements: US20210169892A1, “MODULATORS OF THE INTEGRATED STRESS PATHWAY” (Calico Life Sciences LLC, priority 2017, published 2021)

Test system: HEK293T cells carrying the ATF4 luciferase reporter
Experiment: ATF4-Luc assay (in vitro model of vanishing white matter disease)
Assay type: cell-based
Conditions: Homo sapiens, HEK-293T; HEK293T cells with ATF4 luciferase reporter, 1 μg/mL tunicamycin, 7 hours, One Glo luminescence
Method: In order to test exemplary compounds of the invention in a cellular context, a stable VWMD cell line was first constructed. The ATF4 reporter was prepared by fusing the human full-length ATF4 5′-UTR (NCBI Accession No. BC022088.2) in front of the firefly luciferase (FLuc) coding sequence lacking the initiator methionine as described in Sidrauski et al (eLife 2013). The construct was used to produce recombinant retroviruses using standard methods and the resulting viral supernatant was used to transduce HEK293T cells, which were then subsequently selected with puromycin to generate a stable cell line.
HEK293T cells carrying the ATF4 luciferase reporter were plated on polylysine coated 384-well plates (Greiner Bio-one) at 30,000 cells per well. Cells were treated the next day with 1 μg/mL tunicamycin and 200 nM of a compound of Formula (I) for 7 hours. Luminescence was measured using One Glo (Promega) as specified by the manufacturer. Cells were maintained in DMEM with L-glutamine supplemented with 10% heat-inactivated FBS (Gibco) and Antibiotic-Antimycotic solution (Gibco).
Table 2 below summarizes the EC50 data obtained using the ATF4-Luc assay for exemplary compounds of the invention.

Row | Compound | EC50
1 | CC1(C(=O)N2CC(C(=O)NC34CC(NC(=O)COc5ccc(Cl)c(F)c5)(C3)C4)Oc3ccc(Cl)cc32)CC1(F)F (stereo not shown) [Compound 179, 6-chloro-N-{3-[2-(4-chloro-3-fluorophenoxy)acetamido]bicyclo[1.1.1]pentan-1-yl}-4-(2,2-difluoro-1-methylcyclopropane-1-carbonyl)-3,4-dihydro-2H-1,4-benzoxazine-2-carboxamide] | 500 to 2000 nM
2 | O=C(COc1ccc(Cl)c(F)c1)NC12CCC(NC(=O)C3CC(O)c4cc(Cl)ccc4O3)(CC1)C[C@@H]2O (stereo partly drawn) [Compound 199, 6-chloro-N-{(3S)-4-[2-(4-chloro-3-fluorophenoxy)acetamido]-3-hydroxybicyclo[2.2.2]octan-1-yl}-4-hydroxy-3,4-dihydro-2H-1-benzopyran-2-carboxamide] | < 10 nM
3 | CCOCCS(=O)(=O)N1CC(C(=O)NC23CC(NC(=O)COc4ccc(Cl)c(F)c4)(C2)C3)Oc2ccc(Cl)cc21 (stereo not shown) [Compound 139, 6-chloro-N-{3-[2-(4-chloro-3-fluorophenoxy)acetamido]bicyclo[1.1.1]pentan-1-yl}-4-(2-ethoxyethanesulfonyl)-3,4-dihydro-2H-1,4-benzoxazine-2-carboxamide] | 50 to 250 nM
4 | O=C(COc1ccc(Cl)c(F)c1)NC12CC(NC(=O)C3CN(C(=O)c4ccc(S(=O)(=O)F)cc4)c4cc(Cl)ccc4O3)(C1)C2 (stereo not shown) [Compound 147, 4-[6-chloro-2-({3-[2-(4-chloro-3-fluorophenoxy)acetamido]bicyclo[1.1.1]pentan-1-yl}carbamoyl)-2,3-dihydro-4H-1,4-benzoxazine-4-carbonyl]benzene-1-sulfonyl fluoride] | 500 to 2000 nM
5 | O=C(COc1ccc(Cl)c(F)c1)NC12CC(NC(=O)[C@H]3COc4ccccc4O3)(C1)C2 [Compound 124, (2R)—N-{3-[2-(4-chloro-3-fluorophenoxy)acetamido]bicyclo[1.1.1]pentan-1-yl}-2,3-dihydro-1,4-benzodioxine-2-carboxamide] | 10 to 50 nM
6 | CC(=O)N1CC(C(=O)NC23CC(NC(=O)COc4ccc(Cl)c(F)c4)(C2)C3)Oc2ccc(Cl)cc21 (stereo not shown) [Compound 157, 4-acetyl-6-chloro-N-{3-[2-(4-chloro-3-fluorophenoxy)acetamido]bicyclo[1.1.1]pentan-1-yl}-3,4-dihydro-2H-1,4-benzoxazine-2-carboxamide] | 10 to 50 nM
7 | Cc1nn(C)cc1S(=O)(=O)N1CC(C(=O)NC23CC(NC(=O)COc4ccc(Cl)c(F)c4)(C2)C3)Oc2ccc(Cl)cc21 (stereo not shown) [Compound 173, 6-chloro-N-{3-[2-(4-chloro-3-fluorophenoxy)acetamido]bicyclo[1.1.1]pentan-1-yl}-4-(1,3-dimethyl-1H-pyrazole-4-sulfonyl)-3,4-dihydro-2H-1,4-benzoxazine-2-carboxamide] | 500 to 2000 nM
8 | O=C(O)CCN1CC(C(=O)NC23CC(NC(=O)COc4ccc(Cl)c(F)c4)(C2)C3)Oc2ccc(Cl)cc21 (stereo not shown) [Compound 170, 3-[6-chloro-2-({3-[2-(4-chloro-3-fluorophenoxy)acetamido]bicyclo[1.1.1]pentan-1-yl}carbamoyl)-2,3-dihydro-4H-1,4-benzoxazin-4-yl]propanoic acid] | 250 to 500 nM
9 | O=C(COc1ccc(Cl)c(F)c1)NC12CC(NC(=O)C3CN(C(=O)c4ccncc4)c4cc(Cl)ccc4O3)(C1)C2 (stereo not shown) [Compound 169, 6-chloro-N-{3-[2-(4-chloro-3-fluorophenoxy)acetamido]bicyclo[1.1.1]pentan-1-yl}-4-(pyridine-4-carbonyl)-3,4-dihydro-2H-1,4-benzoxazine-2-carboxamide] | 250 to 500 nM
10 | CC(C)(C)OC(=O)CN1C[C@@H](C(=O)NC23CCC(NC(=O)COc4ccc(Cl)c(F)c4)(CC2)C(O)C3)Oc2ccc(Cl)cc21 (stereo in doubt) [Compound 184, tert-butyl [(2S)-6-chloro-2-({(3S)-4-[2-(4-chloro-3-fluorophenoxy)acetamido]-3-hydroxybicyclo[2.2.2]octan-1-yl}carbamoyl)-2,3-dihydro-4H-1,4-benzoxazin-4-yl]acetate] | 250 to 500 nM
11 | O=C(COc1ccc(Cl)c(F)c1)NC12CC(NC(=O)C3CN(C(=O)c4cccc(C(F)(F)F)c4)c4cc(Cl)ccc4O3)(C1)C2 (stereo not shown) [Compound 160, 6-chloro-N-{3-[2-(4-chloro-3-fluorophenoxy)acetamido]bicyclo[1.1.1]pentan-1-yl}-4-[3-(trifluoromethyl)benzoyl]-3,4-dihydro-2H-1,4-benzoxazine-2-carboxamide] | > 2000 nM
12 | O=C(COc1ccc(Cl)c(F)c1)NC12CC(NC(=O)C3CC(=O)c4cc(Cl)ccc4O3)(C1)C2 (stereo not shown) [Compound 186, 6-chloro-N-{3-[2-(4-chloro-3-fluorophenoxy)acetamido]bicyclo[1.1.1]pentan-1-yl}-4-oxo-3,4-dihydro-2H-1-benzopyran-2-carboxamide] | < 10 nM
13 | O=C(COc1ccc(Cl)c(F)c1)NC12CC(NC(=O)C3CN(C(=O)C(F)(F)C(F)(F)F)c4cc(Cl)ccc4O3)(C1)C2 (stereo not shown) [Compound 178, 6-chloro-N-{3-[2-(4-chloro-3-fluorophenoxy)acetamido]bicyclo[1.1.1]pentan-1-yl}-4-(2,2,3,3,3-pentafluoropropanoyl)-3,4-dihydro-2H-1,4-benzoxazine-2-carboxamide] | < 10 nM
14 | O=C(COc1ccc(Cl)c(F)c1)NC12CCC(NC(=O)C3CCc4cc(F)ccc4O3)(CC1)[C@@H](O)C2 (stereo partly drawn) [Compound 200, N-{(2S)-4-[2-(4-chloro-3-fluorophenoxy)acetamido]-2-hydroxybicyclo[2.2.2]octan-1-yl}-6-fluoro-3,4-dihydro-2H-1-benzopyran-2-carboxamide] | < 10 nM
15 | CN1C[C@@H](C(=O)NC23CCC(NC(=O)COc4ccc(Cl)c(F)c4)(CC2)[C@@H](O)C3)Oc2ccc(Cl)cc21 [Compound 107, 6-chloro-N-{(3S)-4-[2-(4-chloro-3-fluorophenoxy)acetamido]-3-hydroxybicyclo[2.2.2]octan-1-yl}-4-methyl-3,4-dihydro-2H-1,4-benzoxazine-2-carboxamide] | < 10 nM
16 | Cc1ccc(C(=O)N2CC(C(=O)NC34CC(NC(=O)COc5ccc(Cl)c(F)c5)(C3)C4)Oc3ccc(Cl)cc32)o1 (stereo not shown) [Compound 145, 6-chloro-N-{3-[2-(4-chloro-3-fluorophenoxy)acetamido]bicyclo[1.1.1]pentan-1-yl}-4-(5-methylfuran-2-carbonyl)-3,4-dihydro-2H-1,4-benzoxazine-2-carboxamide] | 50 to 250 nM
17 | O=C(COc1ccc(Cl)c(F)c1)NC12CCC(NC(=O)[C@H]3COc4cc(Cl)ccc4O3)(CC1)C[C@@H]2O [Compound 115, (2R)-6-chloro-N-{(3S)-4-[2-(4-chloro-3-fluorophenoxy)acetamido]-3-hydroxybicyclo[2.2.2]octan-1-yl}-2,3-dihydro-1,4-benzodioxine-2-carboxamide] | < 10 nM
18 | COCC(=O)N1CC(C(=O)NC23CC(NC(=O)COc4ccc(Cl)c(F)c4)(C2)C3)Oc2ccc(Cl)cc21 (stereo not shown) [Compound 158, 6-chloro-N-{3-[2-(4-chloro-3-fluorophenoxy)acetamido]bicyclo[1.1.1]pentan-1-yl}-4-(methoxyacetyl)-3,4-dihydro-2H-1,4-benzoxazine-2-carboxamide] | 10 to 50 nM
19 | COCCC(=O)N1CC(C(=O)NC23CC(NC(=O)COc4ccc(Cl)c(F)c4)(C2)C3)Oc2ccc(Cl)cc21 (stereo not shown) [Compound 181, 6-chloro-N-{3-[2-(4-chloro-3-fluorophenoxy)acetamido]bicyclo[1.1.1]pentan-1-yl}-4-(3-methoxypropanoyl)-3,4-dihydro-2H-1,4-benzoxazine-2-carboxamide] | 10 to 50 nM
